# Values of other authors in patent US12552784B2, “1H-pyrrolo[2,3-b]pyridine derivatives as BCL-2 inhibitors for the treatment of neoplastic and autoimmune diseases” (priority 2019, dated 2026).
# How the values were obtained:
# Granta-519 = settings: single agent or in combination with Bendamustine and other agents
# [1] = system: CLL who have 17p deletion; settings: Human Phase I and II
# CLL = settings: average; read-out: EC50 apoptosis in CLL
# RS4;11 xenografts = settings: single dose of 100 mg/kg
# DoHH2 = settings: single agent or in combination with Bendamustine and other agents
# Bcl-w = molecular target: T1, Bcl-w (Homo sapiens, UniProt Q92843)
# T1 sequence (Q92843 1-193): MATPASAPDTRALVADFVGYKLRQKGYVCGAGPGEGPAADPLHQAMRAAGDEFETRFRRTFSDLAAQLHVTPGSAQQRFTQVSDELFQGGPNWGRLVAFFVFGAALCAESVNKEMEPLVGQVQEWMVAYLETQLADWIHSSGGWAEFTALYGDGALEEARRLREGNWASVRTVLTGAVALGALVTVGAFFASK
# [2] = system: acute lymphoblastic leukemia; settings: oral administration alone
# H345 xenograft model = settings: 100 mg/kg/day
# small-cell lung cancer = settings: oral administration alone
# SCLC H146 cell line = settings: read-out: IC50 against SCLC H146 cell line
# [3] = in vivo
# established tumors = settings: animal models
structure (smiles),measurement,setting,value
CC1(C)CCC(CN2CCN(c3ccc(C(=O)NS(=O)(=O)c4ccc(NCC5CCOCC5)c([N+](=O)[O-])c4)c(Oc4cnc5[nH]ccc5c4)c3)CC2)=C(c2ccc(Cl)cc2)C1 [ABT-199],xenograft growth,Granta-519,inhibits xenograft growth
same,clinical efficacy,[1],highly efficacious
same,EC50,CLL,3 nM
same,maximal tumor growth inhibition,RS4;11 xenografts,95%
same,tumor growth delay,RS4;11 xenografts,152%
same,xenograft growth,DoHH2,inhibits xenograft growth
same,EC50,RS4;11 cells,8 nM
same,apoptosis in RS4;11 cells,"RS4;11 cells; with cytochrome c release, caspase activation, accumulation of sub-G0/G1 DNA",rapid apoptosis
CC1(C)CCC(c2ccc(Cl)cc2)=C(CN2CCN(c3ccc(C(=O)NS(=O)(=O)c4ccc(N[C@H](CCN5CCOCC5)CSc5ccccc5)c(S(=O)(=O)C(F)(F)F)c4)cc3)CC2)C1 [ABT-263],Ki,Bcl-w,≤ 1 nM
same,tumor regression,[2],complete tumor regressions
same,TGI,H345 xenograft model,80%
same,treated tumors indicating at least a 50% reduction in tumor volume,H345 xenograft model,20%
same,tumor regression,small-cell lung cancer,complete tumor regressions
same,number of circulating platelets,circulating platelets; clinical trial,"rapid, concentration-dependent decrease"
same,dose-limiting toxicity,circulating platelets; single-agent treatment in patients,mechanism-based thrombocytopenia
same,IC50,SCLC H146 cell line,110 nM
same,oral bioavailability,[3],orally bioavailable
CN(C)CC[C@H](CSc1ccccc1)Nc1ccc(S(=O)(=O)NC(=O)c2ccc(N3CCN(Cc4ccccc4-c4ccc(Cl)cc4)CC3)cc2)cc1[N+](=O)[O-] [ABT-737],cures,established tumors,produces cures in a high percentage of the mice
same,survival,established tumors,improves survival
same,tumor regression,established tumors,causes regression of established tumors
same,aqueous solubility,,low aqueous solubility
same,oral bioavailability,[3],not orally bioavailable
